Data set [1] can be described thus: Clearance in human liver microsomes at 1 uM measured after 30 mins in presence of NADPH by LC-MS/MS analysis. Conditions: read-out: CLH. The data set is classed as ADME, Microsome. On the technique in general: Liver microsomes are a subcellular fraction often used to study metabolism.
Data set [2] concerns the target T1, Parathyroid hormone/parathyroid hormone-related peptide receptor (Homo sapiens) (UniProt Q03431).
T1 sequence (whole entry): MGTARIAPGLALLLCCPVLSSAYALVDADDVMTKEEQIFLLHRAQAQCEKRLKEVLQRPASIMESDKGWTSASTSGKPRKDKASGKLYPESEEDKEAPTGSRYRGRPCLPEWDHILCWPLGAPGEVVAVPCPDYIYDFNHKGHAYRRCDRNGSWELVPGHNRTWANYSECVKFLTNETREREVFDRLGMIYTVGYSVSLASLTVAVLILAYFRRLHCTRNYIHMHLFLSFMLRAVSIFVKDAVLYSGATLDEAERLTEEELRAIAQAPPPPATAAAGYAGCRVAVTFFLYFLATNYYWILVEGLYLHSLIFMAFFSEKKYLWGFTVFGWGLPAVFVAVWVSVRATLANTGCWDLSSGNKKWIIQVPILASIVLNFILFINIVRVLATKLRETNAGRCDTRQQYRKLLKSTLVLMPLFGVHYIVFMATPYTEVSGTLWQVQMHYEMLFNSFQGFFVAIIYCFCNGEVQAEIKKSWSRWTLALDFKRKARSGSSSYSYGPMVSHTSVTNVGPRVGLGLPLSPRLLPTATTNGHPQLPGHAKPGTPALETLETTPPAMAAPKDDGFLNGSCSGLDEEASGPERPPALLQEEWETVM
Conditions: LLC-PK1.

Data set [3] concerns Rattus norvegicus. As to the kind of experiment: Anti-hypoparathyroidism activity in sc dosed TPTX Crl:CD(SD) rat assessed as increase in serum calcium level measured up to 24 hrs by o-CPC method. The data set is classed as functional, organism-based.
A short description of data set [4]: Drug metabolism in human liver microsomes assessed as hydrolysis by measuring compound 19 formation at 1 uM measured after 30 mins in presence of NADPH by LC-MS/MS analysis. Conditions: 0.5 h. The data set is classed as ADME, Microsome.
Data set [5] addresses T2, Parathyroid hormone/parathyroid hormone-related peptide receptor (Homo sapiens, UniProt Q03431).
T2 sequence (Q03431 whole entry): T1 sequence (whole entry)
Briefly: Agonist activity at recombinant human PTHR1 expressed in pig LLC-PK1 cells assessed as increase in cAMP production measured after 20 mins by EIA. The data set is classed as functional, cell-based.

The nature of data set [6]: Drug metabolism in human liver microsomes assessed as oxidation by measuring compound 18 formation at 1 uM measured after 30 mins in presence of NADPH by LC-MS/MS analysis. Format: ADME, Microsome. Conditions: 0.5 h.
Data set [7] is described as follows: AUC (infinity) in rat at 2 mg/kg, iv by LC-MS/MS analysis. Format: ADME, organism-based. Set-up: dose 2 mg/kg, route intravenous, time infinity. Conditions: in vivo.
For data set [8], the system named is Rattus norvegicus. Briefly: Anti-hypoparathyroidism activity in po dosed TPTX Crl:CD(SD) rat assessed as time required to show minimum decrease in serum phosphate level by xanthine oxidase based method. The data set is classed as functional.
Data set [9] concerns Rattus norvegicus. As to the kind of experiment: Anti-hypoparathyroidism activity in po dosed TPTX Crl:CD(SD) rat assessed as time required to show maximum increase in serum calcium level by o-CPC method. The data set is classed as functional.
Data set [10] concerns Rattus norvegicus. As to the kind of experiment: Anti-hypoparathyroidism activity in po dosed TPTX Crl:CD(SD) rat assessed as decrease in serum phosphate level measured up to 24 hrs by xanthine oxidase based method. Format: functional, organism-based.
A short description of data set [11]: Half life in rat at 2 mg/kg, iv by LC-MS/MS analysis. Format: ADME, organism-based. Conditions: in vivo.
Data set [12] is described as follows: Clearance in rat at 2 mg/kg, iv by LC-MS/MS analysis. Format: ADME, organism-based. Conditions: in vivo.
Data set [13] in a line: Volume of distribution at steady state in rat at 2 mg/kg, iv by LC-MS/MS analysis. Format: ADME, organism-based. Conditions: in vivo, read-out: Vdss.
For data set [14], the system named is Rattus norvegicus. As to the kind of experiment: Anti-hypoparathyroidism activity in po dosed TPTX Crl:CD(SD) rat assessed as increase in serum calcium level by measuring serum calcium level at 30 mg/kg, po administered as single dose measured after 24 hrs by o-CPC method. Format: functional.
In data set [15] the test system is Rattus norvegicus. Briefly: Anti-hypoparathyroidism activity in po dosed TPTX Crl:CD(SD) rat assessed as increase in serum calcium level measured up to 24 hrs by o-CPC method. The data set is classed as functional, organism-based.
Data set [16] is described as follows: Drug metabolism in human liver microsomes assessed as compound 17 formation at 1 uM measured after 30 mins in presence of NADPH by LC-MS/MS analysis. Format: ADME, Microsome. Conditions: 0.5 h.

Activity calls are given as the source filed them.

Take `Cc1cc(N2C(=O)N(C)C(=O)C2(C)C)cc(C)c1CCS(=O)(=O)N1CCC2(CC1)N=C(c1ccc(OC(F)(F)F)cc1)NC2=O`: the microsomal CLint at 1 µM in data set [1] came out at 330 µL/min/mg.

Broadly, the EC20 is the point of the concentration-response curve where the effect stands at 20%. Higher therefore signals weaker potency. In data set [2], `CC[C@H](C)[C@H](NC(=O)[C@H](CCC(=O)O)NC(=O)[C@H](CO)NC(=O)[C@@H](NC(=O)[C@@H](N)CO)C(C)C)C(=O)N[C@@H](CCC(N)=O)C(=O)N[C@@H](CC(C)C)C(=O)N[C@@H](CCSC)C(=O)NC(Cc1cnc[nH]1)C(=O)N[C@@H](CC(N)=O)C(=O)N[C@@H](CC(C)C)C(=O)NCC(=O)N[C@@H](CCCCN)C(=O)N[C@@H](Cc1cnc[nH]1)C(=O)N[C@@H](CC(C)C)C(=O)N[C@@H](CC(N)=O)C(=O)N[C@@H](CO)C(=O)NC(CCSC)C(=O)N[C@@H](CCC(=O)O)C(=O)N[C@@H](CCCNC(=N)N)C(=O)N[C@H](C(=O)N[C@@H](CCC(=O)O)C(=O)N[C@@H](Cc1c[nH]c2ccccc12)C(=O)N[C@@H](CC(C)C)C(=O)N[C@@H](CCCNC(=N)N)C(=O)N[C@@H](CCCCN)C(=O)N[C@@H](CCCCN)C(=O)N[C@@H](CC(C)C)C(=O)N[C@@H](CCC(N)=O)C(=O)N[C@@H](CC(=O)O)C(=O)N[C@H](C(=O)N[C@@H](Cc1cnc[nH]1)C(=O)N[C@@H](CC(N)=O)C(=O)N[C@@H](Cc1ccccc1)C(=O)O)C(C)C)C(C)C` (some centres undefined) showed an EC20 of 0.0006 µM. Also, in data set [3], the outcome was Active.

On to `Cc1cc(N)cc(CO)c1C(O)CS(=O)(=O)N1CCC2(CC1)N=C([C@H]1CC[C@H](C)CC1)NC2=O` (some centres undefined), for which the Drug metabolism entry in data set [4] was “Metabolite_Detected”.

The EC50 is the midpoint of the concentration-response curve. For the compound `CC[C@H]1CC[C@H](C2=NC3(CCN(S(=O)(=O)CCc4c(C)cc(N(C)C(N)=O)cc4C)CC3)C(=O)N2)CC1`, in data set [1], the microsomal CLint at 1 µM turned out to be 170 µL/min/mg. Moreover, in [5], the concentration giving a half-maximal response (EC50) is 33 µM. In data set [2], this compound gave a concentration for an effect of 20% (EC20) of 2.2 µM.

Take `Cc1cc(N2C(=O)NC(=O)C2C)cc(C)c1CCS(=O)(=O)N1CCC2(CC1)N=C(c1ccc(OC(F)(F)F)cc1)NC2=O` (centres undefined): the microsomal CLint at 1 µM in data set [1] amounted to 71 µL/min/mg.

Consider `CCC1(CC)C(=O)NC(=O)N1c1cc(C)c(CCS(=O)(=O)N2CCC3(CC2)N=C(c2ccc(OC(F)(F)F)cc2)NC3=O)c(C)c1`, for which the microsomal CLint at 1 µM in data set [1] was determined as 29 µL/min/mg. Also, the EC50 in data set [5] was over 100 µM. The same compound returned an EC20 in data set [2] of 7.4 µM.

As for `Cc1cc(N)cc(C)c1CCS(=O)(=O)N1CCC2(CC1)N=C([C@H]1CC[C@H](C)CC1)NC2=O`, the Drug metabolism entry in data set [6] is “Metabolite_Detected”.

Regarding `Cc1cc(N2C(=O)NC(=O)C23CCCC3)cc(C)c1CCS(=O)(=O)N1CCC2(CC1)N=C(c1ccc(OC(F)(F)F)cc1)NC2=O`, in data set [1], the microsomal CLint at 1 µM is 35 µL/min/mg.

As to `Cc1cc(N2CC(=O)NC2=O)cc(C)c1CCS(=O)(=O)N1CCC2(CC1)N=C(c1ccc(OC(F)(F)F)cc1)NC2=O`, the EC50 in data set [5] was over 100 µM. In addition, the EC20 in data set [2] is over 100 µM.

Turning to `Cc1cc(N2C(=O)CNC2=O)cc(C)c1CCS(=O)(=O)N1CCC2(CC1)N=C([C@H]1CC[C@H](C)CC1)NC2=O`, the microsomal CLint at 1 µM in data set [1] came to 53 µL/min/mg. The EC50 in data set [5] was determined as 32 µM. In [2], this compound had an EC20 of 6 µM.

As a reminder, the AUC(0-inf) is the area under the concentration-time curve extrapolated to infinity. Low readings indicate less exposure, high ones more exposure. By half-life is commonly meant the time needed for the level to fall by half in the phase considered. Lower therefore signals fast loss. For orientation: clearance means the volume of plasma or blood freed of the substance per unit of time. The low end stands for inefficient removal, the high end for efficient removal. In data set [7], `Cc1cc(N2C(=O)NC(=O)C2(C)C)cc(C)c1CCS(=O)(=O)N1CCC2(CC1)N=C(c1ccc(OC(F)(F)F)cc1)NC2=O` [PCO-371] gave an AUC(0-inf) of 1100 ng·h/mL. Further, in data set [1], the microsomal CLint at 1 µM was 30 µL/min/mg. For the same compound, the Time in data set [8] and in data set [9] was 10 h each time. Further, the Activity entry in [10] is “Dose-dependent effect”; in [14] it was 8.8 to 10.4 mg/dL; in [15] it was “Dose-dependent effect”. Besides, in [11], the half-life was 1.3 h. Also, the EC20 in [2] was 1.1 µM. Further, the clearance in data set [12] was 30.5 mL/min/kg. Moreover, in data set [13], the Vd stood at 3.04 L/kg.

On to `Cc1cc(N2C(=O)CNC2=O)cc(C)c1CCS(=O)(=O)N1CCC2(CC1)N=C(c1ccc(OC(F)(F)F)cc1)NC2=O`, for which the microsomal CLint at 1 µM in data set [1] came to 110 µL/min/mg.

For the compound `Cc1cc(N(C)C(N)=O)cc(C)c1CCS(=O)(=O)N1CCC2(CC1)N=C(c1ccc(OC(F)(F)F)cc1)NC2=O`, in [1], the microsomal CLint at 1 µM was determined as 48 µL/min/mg.

Take `Cc1cc(N(C)C(N)=O)cc(C)c1CCS(=O)(=O)N1CCC2(CC1)N=C([C@H]1CC[C@H](C)CC1)NC2=O`: in data set [16], the Drug metabolism entry is given as “Metabolite_Detected”. Also, the Activity entry in data set [10] and in data set [15] was “Dose-dependent effect” in each case.
